Test results published in publication PMC5464773 (eLife, 2017).

Columns and labels:
[1] = test system: BCR-ABL-expressing B-lineage acute lymphoblastic leukemia cells dependent on Bcl-xL; assay: iBH3 profiling, cytochrome c release; assay type: cell-based; settings: iBH3 fits Bcl-xL, sigmoidal dose-response (variable slope); for LogEC50 (best-fit value): log of EC50, x axis Log [Peptide M]; for Bottom (best-fit value) / Top (best-fit value): fit of 3 replicates
Procedure: (§1) As an additional test for on-pathway activity, we measured cytochrome c release in the same engineered cell lines in response to peptide treatment, using iBH3 profiling ([Ryan et al., 2016]).
(§2) The creation and characterization of the BCR-ABL-expressing B-lineage acute lymphoblastic leukemia suspension cell lines with engineered dependencies on human versions of anti-apoptotic genes is detailed in [Koss et al. (2016)]). Cells were grown in RPMI (Life Technologies, Carlsbad, CA) with 10% fetal bovine serum, 2 mM L-glutamine, 10 mL/L 100x Pen/Strep (Life Technologies # 15140122), 25 mM HEPES and 10 mL/L 100x NEAA (Life Technologies, 11140050). The adherent cell lines PC-3 (RRID: CVCL_0035) and SF295 (RRID: CVCL_1690) are from the NCI60 panel ([Lorenzi et al., 2009]) and were grown in RPMI (Life Technologies) with 10% fetal bovine serum, 2 mM L-glutamine and 10 mL/L 100x Pen/Strep (Life Technologies # 15140122 ). Cell line identities were confirmed by STR profiling. The Lookout Mycoplasma PCR detection kit (Sigma) was used to detect mycoplasma infection.
(§3) Cells were suspended in MEB buffer (150 mM mannitol, 50 mM KCl, 10 mM HEPES, 5 mM succinic acid, 20 μM EGTA, 20 μM EDTA, 0.1% BSA, final pH 7.4) at 0.5*10^6 cells/mL (adherent lines) or 2 *10^6 cells/mL (suspension lines). Cell suspension was added to a 384 non-binding well plate (10 μL/well) containing peptides at 2X final concentration in MEB with 20 μg/mL digitonin. Plates were incubated at 25°C for 1 hr. To terminate exposure, 10 μL of 4% formaldehyde in PBS was added to each well, plates were incubated for 10 min before addition of 10 μL N2 buffer (1.7M Tris, 1.25M glycine, pH 9.1) for 5 min. 10 μL of staining buffer (2% Tween20, 10% BSA, PBS) containing 10 μg/mL Hoechst 33342 and 1.25 μg/mL anti-cytochrome c Alexa647 conjugate (BioLegend clone 6H2.B4) was added to each well before sealing the plate and shaking overnight. The median fluorescence of the cytochrome c channel of Hoechst positive singlets was recorded by an IntelliCyt iQue Screener Plus. Cytochrome c release was determined by normalizing the median fluorescence intensity (MFI) data to positive control wells (Alamethicin) and negative control wells (DMSO) as follows: Cytochromecrelease=1−(MFIsample−MFIAlamethicin)/(MFIDMSO−MFIAlamethicin)

[2] = test system: BCR-ABL-expressing B-lineage acute lymphoblastic leukemia cells dependent on Bcl-2; assay: iBH3 profiling, cytochrome c release; assay type: cell-based; settings: iBH3 fits Bcl-2, sigmoidal dose-response (variable slope); for LogEC50 (best-fit value): log of EC50, x axis Log [Peptide M]; for Bottom (best-fit value) / Top (best-fit value): fit of 3 replicates
Procedure: as §1, §2, §3

SF295 cells = assay type: cell-based; settings: for peptide concentration leading to cytochrome c release in unprimed cells: SF295, unprimed, iBH3, 25°C, 1 hr; for Bottom (best-fit value) / HillSlope (best-fit value) / Top (best-fit value) / LogEC50 (best-fit value): SF295 cells, iBH3 fit, sigmoidal dose-response (variable slope); for LogEC50 (best-fit value): log of peptide concentration in M
Procedure: To test the possibility that FS1, FS2 or FS3 may directly activate BAK and BAX, we measured cytochrome c release in two ‘unprimed’ cell lines (PC-3 and SF295). Unprimed cells require BAK/BAX activators to release cytochrome c ([Certo et al., 2006]).
(§4) Cell line identities were confirmed by STR profiling.
Plates were incubated at 25°C for 1 hr.

[3] = test system: BCR-ABL-expressing B-lineage acute lymphoblastic leukemia cells dependent on Bcl-xL; assay: BH3 profiling, mitochondrial depolarization (JC-1) in permeabilized cells; assay type: cell-based; settings: BH3 profiling fits Bcl-xL, sigmoidal dose-response (variable slope), fit ambiguous
Procedure: as §4
(§5) Peptides were titrated by serial dilution in MEB buffer (150 mM Mannitol, 10 mM HEPES-KOH pH 7.5, 50 mM KCl, 0.02 mM EGTA, 0.02 mM EDTA, 0.1% BSA and 5 mM Succinate) containing 20 μg/mL oligomycin, 50 μg/mL digitonin, 2 μM JC-1 and 10 mM 2-mercaptoethanol in 384-well plates. Controls for no depolarization (1% DMSO) and complete depolarization with the mitochondrial oxidative phosphorylation uncoupler FCCP (20 μM) were included for data normalization. […] 15 μL of cell suspension was added to each well containing 15 μL of treatment solution. […] To produce percent depolarization, the area under the resultant curve was calculated and normalized to the assay controls. Peptide titration curves were fit to sigmoidal dose-response curves using Graphpad PRISM seven to obtain EC50 values.

[4] = test system: BCR-ABL-expressing B-lineage acute lymphoblastic leukemia cells dependent on Bfl-1; assay: as above; assay type: cell-based; set-up: key to Bottom (best-fit value) / Top (best-fit value): % depolarization, normalized to DMSO (0) and FCCP (100) controls; settings: for mitochondrial depolarization pattern in BH3 profiling: 100 nM peptide, four cell lines engineered to depend on Bcl-2, Bcl-xL, Mcl-1 or Bfl-1, JC-1; for HillSlope (best-fit value) / Bottom (best-fit value) / Top (best-fit value) / LogEC50 (best-fit value): BH3 profiling fits Bfl-1, sigmoidal dose-response (variable slope); for Bottom (best-fit value): constraint Bottom < 5; for Top (best-fit value): constraint Top > 78; for LogEC50 (best-fit value): x = Log [Peptide] M, 55-56 Y values analyzed
Procedure: as §4, §5

Bfl-1 [5] = molecular target: T1, Bfl-1 (Homo sapiens, UniProt Q16548); assay: Competition fluorescence polarization (anisotropy) with fluoresceinated BIM; assay type: binding; settings: competition FP source data; for Ki: mean of three replicates
T1 construct: c-myc
T1 sequence (Q16548 1-175): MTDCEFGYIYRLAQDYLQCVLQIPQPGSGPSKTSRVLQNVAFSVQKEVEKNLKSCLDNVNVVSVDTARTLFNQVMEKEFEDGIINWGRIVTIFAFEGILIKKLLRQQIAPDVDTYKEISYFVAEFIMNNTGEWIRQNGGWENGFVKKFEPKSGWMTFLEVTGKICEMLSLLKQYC
Procedure: (§6) Plates were mixed at 23°C for 3 hr. Plates were read again at 24 to check equilibration. Experiments were done in at least triplicate.

Bfl-1 [6] = assay: as above; assay type: binding, human; settings: ratio of Ki values from competition FP
Procedure: as §6

Row | Substance | LogEC50 (best-fit value) [1] | HillSlope (best-fit value) [1] | Bottom (best-fit value) [1] | Top (best-fit value) [1] | LogEC50 (best-fit value) [2] | HillSlope (best-fit value) [2] | Bottom (best-fit value) [2] | Top (best-fit value) [2] | peptide concentration leading to cytochrome c release in unprimed cells (SF295 cells) | Bottom (best-fit value) (SF295 cells) | HillSlope (best-fit value) (SF295 cells) | Top (best-fit value) (SF295 cells) | LogEC50 (best-fit value) (SF295 cells) | mitochondrial depolarization pattern in BH3 profiling [4] | HillSlope (best-fit value) [4] | Bottom (best-fit value) [4] | Top (best-fit value) [4] | LogEC50 (best-fit value) [4] | Ki (Bfl-1 [5]) | Ki (M) Bfl-1 (Bfl-1 [5]; replicate 1) | further results
1 | Ac-QWIREIAAGLRRFADILNAQVER-NH2 [FS3] | -5.617 | 1.589 | 0.1375 | 0.9805 | -5.822 | 2.312 | 0.1754 | 0.986 | 30 to 100 µM | 0.0773 | 2.539 | 1.042 | -4.873 | promoted depolarization only in Bfl-1 dependent cells | 0.653 | 0.004086 | 83.65 | -8.381 |  |  | Bottom (best-fit value) ([3]; constraint Bottom < 5): ~ 5; Top (best-fit value) ([3]; constraint Top > 78): 97.17; HillSlope (best-fit value) [3]: ~ 8.841; LogEC50 (best-fit value) ([3]; x = Log [Peptide] M): ~ -4.964; specificity in BH3 profiling ([4]; four engineered cell lines, FS3 statement holds for JC-1 BH3 profiling and iBH3): significant cross reactivity at 30 μM
2 | Ac-QWVREIAAGLRLAADNVNAQLER-NH2 [FS1] | ~ -4.446 | ~ 9.069 | 0.1572 | 0.461 | -3.946 | 0.814 | 0.1541 | 1.46 | > 100 µM | ~ -0.1825 | ~ -14.56 | 0.01448 | ~ -4.046 | promoted depolarization only in Bfl-1 dependent cells | 0.8486 | 1.325 | 81.21 | -7.974 | 14.9 nM | 1.51e-08 M | Ki (M) Bfl-1 (Bfl-1 [5]; replicate 2): 1.72e-08 M; Ki (M) Bfl-1 (Bfl-1 [5]; replicate 3): 1.22e-08 M; specificity for Bfl-1 relative to Bcl-xL, Bcl-2, Bcl-w and Mcl-1 (Bfl-1 [6]): at least 150 fold
3 | Ac-QWVREIAAGLRRAADDVNAQVER-NH2 [FS2] | ~ -3.991 | ~ 14.29 | 0.1223 | ~ 0.6231 | -4.564 | 1.006 | 0.134 | 1.087 | > 100 µM |  |  |  |  | promoted depolarization only in Bfl-1 dependent cells | 0.7703 | 0.97 | 84.17 | -7.679 | 21.4 nM | 2.51e-08 M | Ki (M) Bfl-1 (Bfl-1 [5]; replicate 2): 2.52e-08 M; Ki (M) Bfl-1 (Bfl-1 [5]; replicate 3): 1.4e-08 M
